Values after ≈ are worked out from the molar mass of the structure shown. “Also recorded” adds a separate entry of the source.
Key:
[1] = ophthalmic application, DMSO in association with dilute povidone-iodine; cited from earlier work
[2] = Forced degradation studies (acidic, alkaline, oxidative stress at 60° C.), HPLC quantification; format: physicochemical
Description: (§1) For each unit, ataluren was quantified using the liquid chromatography method adapted from the method described by Kong et al.. Analyses were performed on a Thermo Scientific Ultimate 3000 chromatogram system (Villebon-sur-Yvette, France) including a quaternary pump (LPG 3400A), an automatic sampler (WPS 3000TSL), a diode array detector (DAD 300016) with 5 cm flow cell, and the associated software used to record and interpret chromatograms (Chromeleon®, Version 8.0). The stationary phase consisted in a Kinetex® C18 column (250×4.6 mm; 5 μm, Phenomenex, Le Pecq, France). The mobile phase was a gradient mixture of 0.1% formic acid (A) and acetonitrile (B). The flow rate was maintained at 1 mL/min, and the gradient profile was as follows: t0-11 min: A=30% B=70%; t11-15 min A=70% B=30%. The injection volume was 50 μL. The drug absorbance for quantification was obtained at 276 nm.
[…] To mimic the potential photodegradation occurring prior or after drug administration, photolytic studies were carried out by exposing the drug solutions to direct UV-visible light with and without photocatalyst or photosensitizer (i.e. titanium oxide 1 g L-1, riboflavin 100 mg L-1). Photolysis experiments were performed using a QSUN-XE-1 (Q-Lab, Bolton, United Kingdom) light chamber equipped with a xenon lamp, which simulates natural sunlight in a wavelength range of 300-800 nm. […]

[3] = Photolysis under simulated sunlight, with and without photocatalyst or photosensitizer; format: physicochemical; conditions: for % remaining: Direct photolysis, visible ~119,600 lx, UVA 300-400 nm 66.5 W m^−2; for degradation in direct photolytic stress condition: direct light exposure
Description: as §1
The specificity was assessed by subjecting the ataluren 1% solubilized in DMSO (10%) and castor oil solutions to various forced degradation conditions: 0.1M hydrochloric acid (HCl), 0.1M sodium hydroxide (NaOH), 0.3% and 15% hydrogen peroxide (H2O2) for 24 h, 48 h, and 72 h at 60° C. To mimic the potential photodegradation occurring prior or after drug administration, photolytic studies were carried out by exposing the drug solutions to direct UV-visible light with and without photocatalyst or photosensitizer (i.e. titanium oxide 1 g L-1, riboflavin 100 mg L-1). Photolysis experiments were performed using a QSUN-XE-1 (Q-Lab, Bolton, United Kingdom) light chamber equipped with a xenon lamp, which simulates natural sunlight in a wavelength range of 300-800 nm. A Daylight-Q filter was used to simulate CIE Standard Illuminant D65 (Q-Lab) and irradiance was maintained constant (1.5 W m-2 at 420 nm). The measurements corresponded to a visible intensity of ˜119,600 1×, and a UVA intensity at 300-400 nm of 66.5 W m-2. For all the experiments the temperature was controlled and set at 25±0.5° C.

[4] = cited from earlier work

Row | SMILES | patients with mild irritation (stinging, tingling or burning at the application), without serious adverse effects [1] | appearance of degradation products ([2]; 15% hydrogen peroxide exposure) | degradation under stress ([2]; strong acidic, basic or 0.3% H2O2 conditions, after 7 days exposure) | % remaining ([3]; 30 min exposition) | % remaining ([3]; 60 min exposition) | % remaining ([3]; 180 min exposition) | % remaining ([3]; 360 min exposition) | degradation in direct photolytic stress condition [3] | degradation in direct photolytic stress condition ([3]; listed as Ataluren) | degradation under light with photocatalyst ([3]; in presence of photocatalyst agent (titanium oxide)) | degradation under light with photosensitizer ([3]; in the presence of riboflavin) | solubility ([4]; 1:1 solution of DMSO: PBS pH 7.2) | solubility in aqueous buffers ([4]; aqueous buffers) | solubility in organic solvents ([4]; organic solvents such as dimethyl sulfoxide (DMSO)) | solubility in water ([4]; water)
1 | C[S+](C)[O-] [DMSO, dimethylsulfoxyde] | 11.8% | – | – | – | – | – | – | – | – | – | – | – | – | – | –
2 | O=C(O)c1cccc(-c2noc(-c3ccccc3F)n2)c1 [ataluren, 3-(5-(2-fluorophenyl)-1,2,4-oxadiazol-3-yl)benzoic acid] | – | Degradation products appeared | not degraded | 100.1% | 102.4% | 100.1% | 103.4% | not degraded | did not decrease | rapidly degraded; also recorded: decreased | This was not the case; also recorded: no degradation was observed | ~500 µg/mL (≈ 1760 µM) | sparingly soluble | soluble | very slightly soluble
